In the supplement of paper PMC11208160:

Assay: recombinant UMI read abundance after kanamycin selection (control-corrected) (log10(CPM+1)); higher = more efficient recombination; extreme values may be limits of the assay; sequences stand for … in AGTGCAGAGAAAATCGGCCAGTTTTCTCTGCCTGCAGTCCGCATGCCGTGGGACCCCTTGGGTTCTAACCTGTTGCCTAGATTTATGCAGCGGACTGCCTTTCTCCCAAAGTGATAAACCGG…AGGTTGGTTTCACT; site = the 11-nt donor
Summary of the method: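 In a pooled Escherichia coli screen for the IS621 bridge recombinase, donor and donor-binding-loop pairs were each placed with a 12-nt UMI on a plasmid bearing a promoterless kanamycin gene. This library was co-electroporated with a target plasmid encoding a fixed target and T7-inducible recombinase, and cells were plated either on IPTG (0.07 mM) plus kanamycin or without selection, in two replicates each. Recombinant UMIs were PCR-amplified across the donor–target junction and sequenced, and counts were converted to CPM, averaged over replicates, scaled by control-derived factors and reported as log10(CPM+1).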
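Note: IS621 bridge recombinase in Escherichia coli cells against a fixed T5 target plasmid.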

Sequence	recombinant UMI read abundance (log10)
AGGATAACATGGACCGGTTTTCCCGGTAATCCGTATTTGCA (site AGGATAACTTG)	2.55
AGGATCTCATGGACCGGTTTTCCCGGTAATCCGTATTTGAA (site AGGATCTCTTT)	2.92
AGGATGTCATGGACCGGTTTTCCCGGTAATCCGTATTTGCA (site AGGAAGACTTG)	0.00922
AGGATGTCATGGACCGGTTTTCCCGGTAATCCGTATTTGCA (site AGGATGTCTTG)	3.06
AGGCAGGCATGGACCGGTTTTCCCGGTAATCCGTATTTGCA (site AGGAAGACTTG)	0
AGGCAGGCATGGACCGGTTTTCCCGGTAATCCGTATTTGCA (site AGGCAGGCTTG)	2.63
AGGCATACATGGACCGGTTTTCCCGGTAATCCGTATTTGCA (site AGGAAGACTTG)	0
AGGCATACATGGACCGGTTTTCCCGGTAATCCGTATTTGCA (site AGGCATACTTG)	2.15
AGGCGACCATGGACCGGTTTTCCCGGTAATCCGTATTTGTT (site AGGCGACCTAA)	0.00859
AGGCTCCCATGGACCGGTTTTCCCGGTAATCCGTATTTGTG (site AGGATCCCTCA)	0.00474
AGGCTCCCATGGACCGGTTTTCCCGGTAATCCGTATTTGTG (site AGGCTCCCTCA)	0.0267
AGGCTCCCATGGACCGGTTTTCCCGGTAATCCGTATTTGTG (site AGGGTCCCTCA)	0.0171
AGGCTCCCATGGACCGGTTTTCCCGGTAATCCGTATTTGTG (site AGGTTCCCTCA)	0.0277
AGGGACCCATGGACCGGTTTTCCCGGTAATCCGTATTTGAA (site AGGGACCCTTT)	0.531
AGGGAGACATGGACCGGTTTTCCCGGTAATCCGTATTTGTA (site AGGAAGACTTG)	0
AGGGAGACATGGACCGGTTTTCCCGGTAATCCGTATTTGTA (site AGGGAGACTTA)	1.57
AGGGGTCCATGGACCGGTTTTCCCGGTAATCCGTATTTGTA (site AGGGGTCCTTA)	0.489
AGGTAATCATGGACCGGTTTTCCCGGTAATCCGTATTTGAG (site AGGTAATCTCT)	2.83
AGGTACACATGGACCGGTTTTCCCGGTAATCCGTATTTGCA (site AGGAAGACTTG)	0
AGGTACACATGGACCGGTTTTCCCGGTAATCCGTATTTGCA (site AGGTACACTTG)	2.46
AGGTCAACATGGACCGGTTTTCCCGGTAATCCGTATTTGAT (site AGGTCAACTAT)	0.075
AGGTCCCCATGGACCGGTTTTCCCGGTAATCCGTATTTGTG (site AGGTACCCTCA)	0.0207
AGGTCCCCATGGACCGGTTTTCCCGGTAATCCGTATTTGTG (site AGGTCCCCTCA)	0.0562

Sequence	recombinant UMI read abundance (log10)
AGGTCCCCATGGACCGGTTTTCCCGGTAATCCGTATTTGTG (site AGGTGCCCTCA)	0.0373
AGGTCCCCATGGACCGGTTTTCCCGGTAATCCGTATTTGTG (site AGGTTCCCTCA)	0.00496
AGGTCCTCATGGACCGGTTTTCCCGGTAATCCGTATTTGGG (site AGGTCCTCTCC)	0.0176
AGGTGACCATGGACCGGTTTTCCCGGTAATCCGTATTTGCC (site AGGTGACCTGG)	0
AGGTGCACATGGACCGGTTTTCCCGGTAATCCGTATTTGAA (site AGGTGCACTTT)	0.73
AGGTGCCCATGGACCGGTTTTCCCGGTAATCCGTATTTGTG (site AGGTACCCTCA)	0.015
AGGTGCCCATGGACCGGTTTTCCCGGTAATCCGTATTTGTG (site AGGTCCCCTCA)	0.0213
AGGTGCCCATGGACCGGTTTTCCCGGTAATCCGTATTTGTG (site AGGTGCCCTCA)	0.0128
AGGTGCCCATGGACCGGTTTTCCCGGTAATCCGTATTTGTG (site AGGTTCCCTCA)	0.755
AGGTGGTCATGGACCGGTTTTCCCGGTAATCCGTATTTGCA (site AGGTGGTCTTG)	2.62
AGGTTCCCATGGACCGGTTTTCCCGGTAATCCGTATTTGAG (site AGGTTCCCTCA)	0
AGGTTCCCATGGACCGGTTTTCCCGGTAATCCGTATTTGAG (site AGGTTCCCTCC)	0.0175
AGGTTCCCATGGACCGGTTTTCCCGGTAATCCGTATTTGAG (site AGGTTCCCTCG)	0.00792
AGGTTCCCATGGACCGGTTTTCCCGGTAATCCGTATTTGAG (site AGGTTCCCTCT)	0.00255
AGGTTCCCATGGACCGGTTTTCCCGGTAATCCGTATTTGTC (site AGGTTCCCTAA)	0.0146
AGGTTCCCATGGACCGGTTTTCCCGGTAATCCGTATTTGTC (site AGGTTCCCTCA)	0.0034
AGGTTCCCATGGACCGGTTTTCCCGGTAATCCGTATTTGTC (site AGGTTCCCTGA)	0
AGGTTCCCATGGACCGGTTTTCCCGGTAATCCGTATTTGTC (site AGGTTCCCTTA)	0
AGGTTCCCATGGACCGGTTTTCCCGGTAATCCGTATTTGTG (site AAGTTCCCTCA)	0.0108
AGGTTCCCATGGACCGGTTTTCCCGGTAATCCGTATTTGTG (site ACGTTCCCTCA)	0.0097
AGGTTCCCATGGACCGGTTTTCCCGGTAATCCGTATTTGTG (site AGATTCCCTCA)	0.438
AGGTTCCCATGGACCGGTTTTCCCGGTAATCCGTATTTGTG (site AGCTTCCCTCA)	0.0211
AGGTTCCCATGGACCGGTTTTCCCGGTAATCCGTATTTGTG (site AGGATCCCTCA)	0.163

Sequence	recombinant UMI read abundance (log10)
AGGTTCCCATGGACCGGTTTTCCCGGTAATCCGTATTTGTG (site AGGCTCCCTCA)	0.149
AGGTTCCCATGGACCGGTTTTCCCGGTAATCCGTATTTGTG (site AGGGTCCCTCA)	0.0158
AGGTTCCCATGGACCGGTTTTCCCGGTAATCCGTATTTGTG (site AGGTACCCTCA)	0.00814
AGGTTCCCATGGACCGGTTTTCCCGGTAATCCGTATTTGTG (site AGGTCCCCTCA)	0.019
AGGTTCCCATGGACCGGTTTTCCCGGTAATCCGTATTTGTG (site AGGTGCCCTCA)	0.018
AGGTTCCCATGGACCGGTTTTCCCGGTAATCCGTATTTGTG (site AGGTTACCTCA)	0.00985
AGGTTCCCATGGACCGGTTTTCCCGGTAATCCGTATTTGTG (site AGGTTCACTCA)	0.0115
AGGTTCCCATGGACCGGTTTTCCCGGTAATCCGTATTTGTG (site AGGTTCCCTAA)	0.00843
AGGTTCCCATGGACCGGTTTTCCCGGTAATCCGTATTTGTG (site AGGTTCCCTCA)	0.152
AGGTTCCCATGGACCGGTTTTCCCGGTAATCCGTATTTGTG (site AGGTTCCCTCC)	0.014
AGGTTCCCATGGACCGGTTTTCCCGGTAATCCGTATTTGTG (site AGGTTCCCTCG)	0.328
AGGTTCCCATGGACCGGTTTTCCCGGTAATCCGTATTTGTG (site AGGTTCCCTCT)	0.0108
AGGTTCCCATGGACCGGTTTTCCCGGTAATCCGTATTTGTG (site AGGTTCCCTGA)	0
AGGTTCCCATGGACCGGTTTTCCCGGTAATCCGTATTTGTG (site AGGTTCCCTTA)	0
AGGTTCCCATGGACCGGTTTTCCCGGTAATCCGTATTTGTG (site AGGTTCGCTCA)	0.0252
AGGTTCCCATGGACCGGTTTTCCCGGTAATCCGTATTTGTG (site AGGTTCTCTCA)	0.634
AGGTTCCCATGGACCGGTTTTCCCGGTAATCCGTATTTGTG (site AGGTTGCCTCA)	0.0234
AGGTTCCCATGGACCGGTTTTCCCGGTAATCCGTATTTGTG (site AGGTTTCCTCA)	0.00972
AGGTTCCCATGGACCGGTTTTCCCGGTAATCCGTATTTGTG (site AGTTTCCCTCA)	0.0518
AGGTTCCCATGGACCGGTTTTCCCGGTAATCCGTATTTGTG (site ATGTTCCCTCA)	0.0101
AGGTTCCCATGGACCGGTTTTCCCGGTAATCCGTATTTGTG (site CGGTTCCCTCA)	0.0101
AGGTTCCCATGGACCGGTTTTCCCGGTAATCCGTATTTGTG (site GGGTTCCCTCA)	0.0086
